Test system: NOMO1
Experiment: cell viability relative to DMSO control; higher = less cytotoxic
Details: 48 h
Outline: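 NOMO1 or SEM (500 cells/well) or P12-Ichikawa (1000 cells/well) leukemia cells were adapted for at least four passages in each medium. They were seeded in 1536-well plates (5 μl) and pin-dosed with library compounds in DMSO over an 11-point threefold series, 47 μM to 0.79 nM. CellTiter-Glo One luminescence was read after 48 h at 37°C. Viability is the per-plate percentage relative to DMSO wells, with cell-free wells as background.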

[1] = HPLM + 10% dialyzed FBS, 0.000781 µM
[2] = HPLM + 10% dialyzed FBS, 0.00234 µM
[3] = HPLM + 10% dialyzed FBS, 0.00702 µM
[4] = HPLM + 10% dialyzed FBS, 0.0211 µM
[5] = HPLM + 10% dialyzed FBS, 0.0632 µM
[6] = HPLM + 10% dialyzed FBS, 0.19 µM
[7] = HPLM + 10% dialyzed FBS, 0.569 µM
[8] = HPLM + 10% dialyzed FBS, 1.71 µM
[9] = HPLM + 10% dialyzed FBS, 5.12 µM
[10] = HPLM + 10% dialyzed FBS, 15.4 µM
[11] = HPLM + 10% dialyzed FBS, 46.1 µM
[12] = RPMI 5 mM glucose + 10% FBS, 0.000781 µM
[13] = RPMI 5 mM glucose + 10% FBS, 0.00234 µM
[14] = RPMI 5 mM glucose + 10% FBS, 0.00702 µM
[15] = RPMI 5 mM glucose + 10% FBS, 0.0211 µM
[16] = RPMI 5 mM glucose + 10% FBS, 0.0632 µM
[17] = RPMI 5 mM glucose + 10% FBS, 0.19 µM
[18] = RPMI 5 mM glucose + 10% FBS, 0.569 µM
[19] = RPMI 5 mM glucose + 10% FBS, 1.71 µM
[20] = RPMI 5 mM glucose + 10% FBS, 5.12 µM
[21] = RPMI 5 mM glucose + 10% FBS, 15.4 µM
[22] = RPMI 5 mM glucose + 10% FBS, 46.1 µM
[23] = RPMI 5 mM glucose + 10% dialyzed FBS, 0.000781 µM
[24] = RPMI 5 mM glucose + 10% dialyzed FBS, 0.00234 µM
[25] = RPMI 5 mM glucose + 10% dialyzed FBS, 0.00702 µM
[26] = RPMI 5 mM glucose + 10% dialyzed FBS, 0.0211 µM
[27] = RPMI 5 mM glucose + 10% dialyzed FBS, 0.0632 µM
[28] = RPMI 5 mM glucose + 10% dialyzed FBS, 0.19 µM
[29] = RPMI 5 mM glucose + 10% dialyzed FBS, 0.569 µM
[30] = RPMI 5 mM glucose + 10% dialyzed FBS, 1.71 µM
[31] = RPMI 5 mM glucose + 10% dialyzed FBS, 5.12 µM
[32] = RPMI 5 mM glucose + 10% dialyzed FBS, 15.4 µM
[33] = RPMI 5 mM glucose + 10% dialyzed FBS, 46.1 µM

SMILES | cell viability [1] [%] | cell viability [2] [%] | cell viability [3] [%] | cell viability [4] [%] | cell viability [5] [%] | cell viability [6] [%] | cell viability [7] [%] | cell viability [8] [%] | cell viability [9] [%] | cell viability [10] [%] | cell viability [11] [%] | cell viability [12] [%] | cell viability [13] [%] | cell viability [14] [%] | cell viability [15] [%] | cell viability [16] [%] | cell viability [17] [%] | cell viability [18] [%] | cell viability [19] [%] | cell viability [20] [%] | cell viability [21] [%] | cell viability [22] [%] | cell viability [23] [%] | cell viability [24] [%] | cell viability [25] [%] | cell viability [26] [%] | cell viability [27] [%] | cell viability [28] [%] | cell viability [29] [%] | cell viability [30] [%] | cell viability [31] [%] | cell viability [32] [%] | cell viability [33] [%]
Cc1cnn(C)c1C(=O)Nc1cc(Nc2ccc3c(/C=C/c4ccccn4)n[nH]c3c2)ccc1F | 119 | 125 | 124 | 141 | 129 | 113 | 143 | 120 | 102 | 70.4 | 12.9 |  |  |  |  |  |  |  |  |  |  |  |  |  |  |  |  |  |  |  |  |  | 
CNCC(O)c1ccc(O)cc1 (stereo unspecified) | 114 | 106 | 116 | 103 | 116 | 125 | 129 | 109 | 128 | 113 | 134 | 96.7 | 104 | 118 | 116 | 112 | 103 | 125 | 118 | 127 | 120 | 121 | 106 | 122 | 109 | 119 | 104 | 118 | 108 | 113 | 125 | 130 | 120
C[C@@H]1COCCN1c1cc(C2([S@+](C)(=N)[O-])CC2)nc(-c2ccnc3[nH]ccc23)n1 | 94.9 | 116 | 119 | 121 | 127 | 120 | 91.9 | 67.7 | 34.5 | 27.6 | 24.6 | 102 | 114 | 114 | 119 | 115 | 130 | 114 | 103 | 59.4 | 24.5 | 17.9 | 97.6 | 107 | 114 | 119 | 122 | 120 | 116 | 98.2 | 39 | 22 | 22.3
CCc1ccc(CCOc2ccc(CC3SC(=O)NC3=O)cc2)nc1 (stereo unspecified) | 125 | 106 | 119 | 134 | 130 | 113 | 111 | 112 | 96.7 | 114 | 106 | 112 | 123 | 129 | 120 | 107 | 112 | 99 | 121 | 106 | 107 | 106 |  |  |  |  |  |  |  |  |  |  | 
C[C@](O)(CS(=O)(=O)c1ccc(F)cc1)C(=O)Nc1ccc(C#N)c(C(F)(F)F)c1 | 106 | 100 | 111 | 121 | 126 | 128 | 104 | 123 | 115 | 116 | 134 | 103 | 108 | 128 | 140 | 133 | 141 | 134 | 128 | 126 | 133 | 137 | 112 | 119 | 132 | 135 | 127 | 124 | 129 | 131 | 129 | 120 | 131
CNC(=O)c1ccc(N2C(=S)N(c3cnc(C#N)c(C(F)(F)F)c3)C(=O)C23CCC3)cc1F | 79.6 | 114 | 103 | 115 | 110 | 116 | 102 | 89.8 | 69.7 | 64.8 | 50.2 | 84.9 | 113 | 111 | 104 | 105 | 111 | 96.3 | 83.4 | 79 | 73.2 | 60.2 | 88 | 109 | 107 | 104 | 99.1 | 121 | 123 | 104 | 73.3 | 74 | 74.2
Cn1cnc2c(F)c(Nc3ccc(Br)cc3F)c(C(=O)NOCCO)cc21 | 91.4 | 83.3 | 95.9 | 27.1 | 62.4 | 56.4 | 57.7 | 41.4 | 34.3 | 40 | 35.3 | 83.3 | 80.2 | 82.4 | 16.4 | 75.5 | 66.2 | 50.2 | 42.6 | 37.5 | 31.2 | 36.5 | 77.1 | 90.2 | 98.7 | 37.9 | 75.3 | 49.6 | 45.4 | 40.5 | 39.6 | 34.5 | 34.6
CC[C@]12CC[C@H]3[C@@H](CCC/4=C/C(=O)CC[C@H]34)[C@@H]1\C=C/[C@@]2(O)C#C | 118 | 116 | 132 | 133 | 128 | 113 | 137 | 146 | 133 | 138 | 124 | 110 | 120 | 120 | 123 | 122 | 138 | 133 | 121 | 112 | 130 | 139 | 116 | 133 | 122 | 124 | 126 | 111 | 137 | 133 | 138 | 140 | 132

From the supplement of paper PMC11451515
